Values of other authors in patent publication US20200121704A1, “METHODS FOR TREATING HYPERTENSION AND ARTERIAL STIFFNESS” (THE REGENTS OF THE UNIVERSITY OF COLORADO, A BODY CORPORATE, priority 2017, published 2020).

Experiments:
Klotho deficient mice = conditions: cited from earlier work
old mice = conditions: supplementation; cited from earlier work
endothelial cells = conditions: cited from earlier work
ET-1 = conditions: animal models of hypercholesterolemia and cardiac hypertrophy; cited from earlier work

In the case of O=C(Nc1ccccc1-c1cn2c(CN3CCNCC3)csc2n1)c1cnc2ccccc2n1 [SRT1720], the Development of hypertension (Klotho deficient mice; Klotho deficient mice (a model of accelerated aging)) is listed as “protects against the development of hypertension” and the “Development of arterial stiffness” value (Klotho deficient mice; klotho deficient mice) is listed as “prevented the development of arterial stiffness”.
For NC(=O)c1ccc[n+]([C@@H]2O[C@H](COP(=O)([O-])O)[C@@H](O)[C@H]2O)c1 [NMN, nicotinamide mononucleotide], the Aortic stiffening (old mice) is listed as “reverses aortic stiffening in old mice to youthful levels”.
In the case of Oc1ccc(C=Cc2cc(O)cc(O)c2)cc1 [resveratrol], the “Secretion of ET-1 by endothelial cells” value (endothelial cells) is given as “suppressed” and the “Circulating ET-1 levels” value (ET-1) is given as “decreases circulating ET-1 levels”.
